± gives the expanded uncertainty stated by the source.
Assay: activity coefficient (dimensionless); of the first substance listed, at infinite dilution; xn = mol fraction of the nth substance listed
Details: Liquid, Chromatography, x1 = 0

Compound | activity coefficient (323.15 K) | activity coefficient (333.15 K) | activity coefficient (343.15 K)
c1ccncc1 [pyridine] + CCCOC[n+]1ccn(Cc2ccccc2)c1.N#C[N-]C#N | 0.67 ± 0.05 | 0.69 ± 0.05 | 0.71 ± 0.05
c1ccncc1 [pyridine] + CCCOC[n+]1ccn(Cc2ccccc2)c1.O=S(=O)([N-]S(=O)(=O)C(F)(F)F)C(F)(F)F | – | 0.28 ± 0.03 | 0.29 ± 0.03
c1ccncc1 [pyridine] + CN(C)c1cc[n+](COCCCOC[n+]2ccc(N(C)C)cc2)cc1.O=S(=O)([N-]S(=O)(=O)C(F)(F)F)C(F)(F)F.O=S(=O)([N-]S(=O)(=O)C(F)(F)F)C(F)(F)F | 0.29 ± 0.03 | 0.31 ± 0.03 | 0.32 ± 0.03
c1ccncc1 [pyridine] + Cn1cc[n+](COCCCOC[n+]2ccn(C)c2)c1.N#C[N-]C#N.N#C[N-]C#N | 1 ± 0.06 | 1.01 ± 0.06 | 1.04 ± 0.07
c1ccncc1 [pyridine] + Cn1cc[n+](COCCCOC[n+]2ccn(C)c2)c1.O=S(=O)([N-]S(=O)(=O)C(F)(F)F)C(F)(F)F.O=S(=O)([N-]S(=O)(=O)C(F)(F)F)C(F)(F)F | 0.4 ± 0.03 | 0.41 ± 0.03 | 0.41 ± 0.03
c1ccncc1 [pyridine] + N#C[N-]C#N.N#C[N-]C#N.c1ccc(Cn2cc[n+](COCCCOC[n+]3ccn(Cc4ccccc4)c3)c2)cc1 | 1.1 ± 0.07 | 1.1 ± 0.07 | 1.12 ± 0.07
ClC(Cl)(Cl)Cl [tetrachloromethane] + CCCCCCCCn1cc[n+](COCCC)c1C.N#C[N-]C#N | 1.21 ± 0.08 | 1.23 ± 0.08 | 1.24 ± 0.08
ClC(Cl)(Cl)Cl [tetrachloromethane] + CCCCCCCCn1cc[n+](COCCC)c1C.O=S(=O)([N-]S(=O)(=O)C(F)(F)F)C(F)(F)F | 1.21 ± 0.08 | 1.19 ± 0.08 | 1.24 ± 0.08
ClC(Cl)(Cl)Cl [tetrachloromethane] + CCCCCCCCn1cc[n+](COCCCOC[n+]2ccn(CCCCCCCC)c2C)c1C.N#C[N-]C#N.N#C[N-]C#N | 1.11 ± 0.07 | 1.12 ± 0.07 | 1.12 ± 0.07
ClC(Cl)(Cl)Cl [tetrachloromethane] + CCCCCCCCn1cc[n+](COCCCOC[n+]2ccn(CCCCCCCC)c2C)c1C.O=S(=O)([N-]S(=O)(=O)C(F)(F)F)C(F)(F)F.O=S(=O)([N-]S(=O)(=O)C(F)(F)F)C(F)(F)F | 0.99 ± 0.06 | 0.92 ± 0.06 | 1.02 ± 0.06
ClC(Cl)(Cl)Cl [tetrachloromethane] + CCCOC[n+]1ccc(N(C)C)cc1.O=S(=O)([N-]S(=O)(=O)C(F)(F)F)C(F)(F)F | 2.01 ± 0.14 | 2.08 ± 0.14 | 1.95 ± 0.13
ClC(Cl)(Cl)Cl [tetrachloromethane] + CCCOC[n+]1ccn(C)c1.F[B-](F)(F)F | 8.91 ± 0.61 | 8.58 ± 0.59 | 8.19 ± 0.56
ClC(Cl)(Cl)Cl [tetrachloromethane] + CCCOC[n+]1ccn(C)c1.N#C[N-]C#N | 4.04 ± 0.28 | 4.08 ± 0.28 | 4.39 ± 0.3
ClC(Cl)(Cl)Cl [tetrachloromethane] + CCCOC[n+]1ccn(C)c1.O=S(=O)([N-]S(=O)(=O)C(F)(F)F)C(F)(F)F | 3 ± 0.2 | 3.05 ± 0.21 | 2.85 ± 0.19
ClC(Cl)(Cl)Cl [tetrachloromethane] + CCCOC[n+]1ccn(Cc2ccccc2)c1.F[B-](F)(F)F | 5.01 ± 0.34 | 4.71 ± 0.32 | 4.58 ± 0.31
ClC(Cl)(Cl)Cl [tetrachloromethane] + CCCOC[n+]1ccn(Cc2ccccc2)c1.N#C[N-]C#N | 2.5 ± 0.17 | 2.58 ± 0.18 | 2.67 ± 0.18

Compound | activity coefficient (323.15 K) | activity coefficient (333.15 K) | activity coefficient (343.15 K)
ClC(Cl)(Cl)Cl [tetrachloromethane] + CCCOC[n+]1ccn(Cc2ccccc2)c1.O=S(=O)([N-]S(=O)(=O)C(F)(F)F)C(F)(F)F | 1.87 ± 0.13 | 1.83 ± 0.12 | 1.81 ± 0.12
ClC(Cl)(Cl)Cl [tetrachloromethane] + Cn1cc[n+](COCCCOC[n+]2ccn(C)c2)c1.N#C[N-]C#N.N#C[N-]C#N | 6.68 ± 0.46 | 6.94 ± 0.47 | 7 ± 0.48
ClC(Cl)(Cl)Cl [tetrachloromethane] + Cn1cc[n+](COCCCOC[n+]2ccn(C)c2)c1.O=S(=O)([N-]S(=O)(=O)C(F)(F)F)C(F)(F)F.O=S(=O)([N-]S(=O)(=O)C(F)(F)F)C(F)(F)F | 3.21 ± 0.22 | 3.03 ± 0.21 | 2.29 ± 0.16
CCCCCCCCCCCCCC [tetradecane] + CCCOC[n+]1ccn(C)c1.F[B-](F)(F)F | 2700 ± 190 | 2500 ± 170 | 2300 ± 160
CCCCCCCCCCCCCC [tetradecane] + CCCOC[n+]1ccn(C)c1.N#C[N-]C#N | 1510 ± 100 | 1390 ± 96 | 1260 ± 87
c1ccsc1 [thiophene] + CCCCCCCCn1cc[n+](COCCC)c1C.N#C[N-]C#N | 0.66 ± 0.05 | 0.66 ± 0.05 | 0.64 ± 0.04
c1ccsc1 [thiophene] + CCCCCCCCn1cc[n+](COCCC)c1C.O=S(=O)([N-]S(=O)(=O)C(F)(F)F)C(F)(F)F | 0.57 ± 0.04 | 0.52 ± 0.04 | 0.56 ± 0.04
c1ccsc1 [thiophene] + CCCCCCCCn1cc[n+](COCCCOC[n+]2ccn(CCCCCCCC)c2C)c1C.N#C[N-]C#N.N#C[N-]C#N | 0.49 ± 0.04 | 0.49 ± 0.04 | 0.51 ± 0.04
c1ccsc1 [thiophene] + CCCCCCCCn1cc[n+](COCCCOC[n+]2ccn(CCCCCCCC)c2C)c1C.O=S(=O)([N-]S(=O)(=O)C(F)(F)F)C(F)(F)F.O=S(=O)([N-]S(=O)(=O)C(F)(F)F)C(F)(F)F | 0.38 ± 0.03 | 0.37 ± 0.03 | 0.38 ± 0.03
c1ccsc1 [thiophene] + CCCOC[n+]1ccc(N(C)C)cc1.O=S(=O)([N-]S(=O)(=O)C(F)(F)F)C(F)(F)F | 0.65 ± 0.04 | 0.69 ± 0.05 | 0.69 ± 0.05
c1ccsc1 [thiophene] + CCCOC[n+]1ccn(C)c1.F[B-](F)(F)F | 2.26 ± 0.15 | 2.27 ± 0.15 | 2.27 ± 0.15
c1ccsc1 [thiophene] + CCCOC[n+]1ccn(C)c1.N#C[N-]C#N | 1.41 ± 0.09 | 1.45 ± 0.1 | 1.5 ± 0.1
c1ccsc1 [thiophene] + CCCOC[n+]1ccn(C)c1.O=S(=O)([N-]S(=O)(=O)C(F)(F)F)C(F)(F)F | 1.06 ± 0.07 | 1.05 ± 0.07 | 1.04 ± 0.07
c1ccsc1 [thiophene] + CCCOC[n+]1ccn(Cc2ccccc2)c1.F[B-](F)(F)F | 1.33 ± 0.09 | 1.27 ± 0.08 | 1.25 ± 0.08
c1ccsc1 [thiophene] + CCCOC[n+]1ccn(Cc2ccccc2)c1.N#C[N-]C#N | 0.98 ± 0.06 | 1.02 ± 0.06 | 1.04 ± 0.07
c1ccsc1 [thiophene] + CCCOC[n+]1ccn(Cc2ccccc2)c1.O=S(=O)([N-]S(=O)(=O)C(F)(F)F)C(F)(F)F | 0.7 ± 0.05 | 0.62 ± 0.04 | 0.62 ± 0.04

Reference: the NIST ThermoML archive (doi:10.1016/j.fluid.2014.11.020)
